Assay results: ChEMBL document CHEMBL6153037, “Developing dual-responsive quinolinium prodrugs of 8-hydroxyquinoline by harnessing the dual chelating sites” (Eur J Med Chem, 2025)
Activity calls are given as the source filed them. No cut-off for these calls is given here.

What was measured:
MDA-MB-231 [1] = assay: Induction of apoptosis in human MDA-MB-231 cells assessed as early apoptotic cells at 0.4 uM incubated for 24 hrs by Annexin V-FITC/PI staining based flow cytometry (reference value: 7.39 %); type: functional
MCF-10A [2] = assay: Induction of apoptosis in human MCF-10A cells assessed as early apoptotic cells at 1.2 uM incubated for 24 hrs by Annexin V-FITC/PI staining based flow cytometry (reference value: 2.96 %); type: toxicity, cell-based
MDA-MB-231 [3] = assay: Induction of apoptosis in human MDA-MB-231 cells assessed as early apoptotic cells at 0.8 uM incubated for 24 hrs by Annexin V-FITC/PI staining based flow cytometry (reference value: 7.39 %); type: functional
MDA-MB-231 [4] = assay: Cytotoxicity against human MDA-MB-231 cells assessed as increase in red fluorescence at 0.4 to 0.8 uM by Calcein AM/PI staining based analysis; type: functional, cell-based; settings: dose 0.4-0.8 µM
MDA-MB-231 [5] = assay: Inhibition of DNA synthesis in human MDA-MB-231 cells by EdU incorporation assay; type: functional, cell-based
[6] = Prodrug conversion in solution containing ONOO- assessed as 8-HQ release; type: ADME
MDA-MB-231 [7] = assay: Induction of apoptosis in human MDA-MB-231 cells assessed as viable cells at 1.2 uM incubated for 24 hrs by Annexin V-FITC/PI staining based flow cytometry (reference value: 86.2 %); type: functional; settings: read-out: Activity
MDA-MB-231 [8] = assay: Antitumor activity against human MDA-MB-231 cells xenografted in BALB/c nude mouse at 20 mg/kg, iv administered every two days for 21 days relative to control; type: functional; settings: MDA-MB-231, 504 h, time 21 day, read-out: TGI
MDA-MB-231 [9] = assay: Antitumor activity against human MDA-MB-231 cells assessed as reduction in sphere volume incubated for 6 hrs followed by medium replacement without compound measured after 6 days by microscopic analysis; type: functional, cell-based
[10] = Induction of apoptosis in human MCF-10A cells assessed as viable cells at 0.4 uM incubated for 24 hrs by Annexin V-FITC/PI staining based flow cytometry (reference value: 92.5 %); type: toxicity, cell-based; settings: read-out: Activity
[11] = Cytotoxicity against human MCF-10A cells assessed as cell survival at 10 uM incubated for 48 hrs by MTT assay relative to control; type: toxicity, cell-based; settings: read-out: Survival
MCF-10A [12] = assay: Induction of apoptosis in human MCF-10A cells assessed as necrotic cells at 1.2 uM incubated for 24 hrs by Annexin V-FITC/PI staining based flow cytometry (reference value: 1.38 %); type: toxicity, cell-based
MDA-MB-231 [13] = assay: Induction of apoptosis in human MDA-MB-231 cells assessed as early apoptotic cells at 1.2 uM incubated for 24 hrs by Annexin V-FITC/PI staining based flow cytometry (reference value: 7.39 %); type: functional
MCF-10A [14] = assay: Inhibition of mitochondrial membrane potential in human MCF-10A cells assessed as decrease in ATP level at 0.4 to 0.8 uM incubated for 24 hrs by luminescence based analysis; type: toxicity, cell-based; settings: dose 0.4-0.8 µM
MDA-MB-231 [15] = assay: Anti-migration activity in human MDA-MB-231 cells at 0.4 uM incubated for 24 hrs by wound healing assay (reference value: 45.4 %); type: functional
MCF-10A [16] = assay: Induction of apoptosis in human MCF-10A cells assessed as late apoptotic cells at 1.2 uM incubated for 24 hrs by Annexin V-FITC/PI staining based flow cytometry (reference value: 3.13 %); type: toxicity, cell-based
MCF-10A [17] = assay: Induction of apoptosis in human MCF-10A cells assessed as early apoptotic cells at 0.8 uM incubated for 24 hrs by Annexin V-FITC/PI staining based flow cytometry (reference value: 2.96 %); type: toxicity, cell-based
MDA-MB-231 [18] = assay: Induction of apoptosis in human MDA-MB-231 cells assessed as necrotic cells at 0.8 uM incubated for 24 hrs by Annexin V-FITC/PI staining based flow cytometry (reference value: 0.59 %); type: functional
MDA-MB-231 [19] = assay: Antitumor activity against human MDA-MB-231 cells xenografted in BALB/c nude mouse assessed as tumor size at 20 mg/kg, iv administered every two days for 21 days (reference value: 1940 mm3); type: functional; settings: time 21 day
[20] = Prodrug conversion in PBS at pH 7.4 containing H2O2 assessed as 8-HQ release by measuring retention time at 50 uM measured after 15 mins by HPLC analysis; type: ADME; settings: buffer, pH 7.4, 0.25 h
MDA-MB-231 [21] = assay: Induction of apoptosis in human MDA-MB-231 cells assessed as late apoptotic cells at 0.4 uM incubated for 24 hrs by Annexin V-FITC/PI staining based flow cytometry (reference value: 5.81 %); type: functional
[22] = Induction of apoptosis in human MCF-10A cells assessed as viable cells at 0.8 uM incubated for 24 hrs by Annexin V-FITC/PI staining based flow cytometry (reference value: 92.5 %); type: toxicity, cell-based; settings: read-out: Activity
MDA-MB-231 [23] = assay: Induction of cell cycle arrest in human MDA-MB-231 cells assessed as accumulation at G0/G1 phase at 0.8 uM by PI staining based flow cytometry (reference value: 64.6 %); type: functional

CC1(C)OB(c2ccc(C[n+]3cccc4cccc(O)c43)cc2)OC1(C)C.[Br-]
Activity (MDA-MB-231 [1]): 14.2% | Activity (MCF-10A [2]): 2.12% | Activity (MDA-MB-231 [3]): 40.3% | Activity (MDA-MB-231 [4]): Active | inhibition (MDA-MB-231 [5]): Active | Drug metabolism [6]: metabolite_detected | viability at 1.2 µM (MDA-MB-231 [7]): 6.61% | inhibition in vivo at 20 mg/kg (MDA-MB-231 [8]): 63.1% | Activity (MDA-MB-231 [9]): Active | viability at 24 h, 0.4 µM [10]: 94.9% | viability at 48 h, 10 µM [11]: 86% | Activity (MCF-10A [12]): 0.84% | Activity (MDA-MB-231 [13]): 71% | Activity (MCF-10A [14]): Non-toxic | Activity (MDA-MB-231 [15]): 16.5% | Activity (MCF-10A [16]): 3.73% | Activity (MCF-10A [17]): 2.18% | Activity (MDA-MB-231 [18]): 7.08% | Activity (MDA-MB-231 [19]): 710 mm3 | Retention_time [20]: 2.8 min | Activity (MDA-MB-231 [21]): 13.2% | viability at 24 h, 0.8 µM [22]: 93.7% | Activity (MDA-MB-231 [23]): 74.2%
